We go through 2 molecules from paper PMC8245654, “Extended JAZ degron sequence for plant hormone binding in jasmonate co-receptor of tomato SlCOI1-SlJAZ” (Scientific Reports, 2021).

The target in one assay is T1, SlCOI1-SlJAZ7 (Solanum lycopersicum, UniProt Q6TDU2+Q9M723).
T1 sequence (Q6TDU2 1-603): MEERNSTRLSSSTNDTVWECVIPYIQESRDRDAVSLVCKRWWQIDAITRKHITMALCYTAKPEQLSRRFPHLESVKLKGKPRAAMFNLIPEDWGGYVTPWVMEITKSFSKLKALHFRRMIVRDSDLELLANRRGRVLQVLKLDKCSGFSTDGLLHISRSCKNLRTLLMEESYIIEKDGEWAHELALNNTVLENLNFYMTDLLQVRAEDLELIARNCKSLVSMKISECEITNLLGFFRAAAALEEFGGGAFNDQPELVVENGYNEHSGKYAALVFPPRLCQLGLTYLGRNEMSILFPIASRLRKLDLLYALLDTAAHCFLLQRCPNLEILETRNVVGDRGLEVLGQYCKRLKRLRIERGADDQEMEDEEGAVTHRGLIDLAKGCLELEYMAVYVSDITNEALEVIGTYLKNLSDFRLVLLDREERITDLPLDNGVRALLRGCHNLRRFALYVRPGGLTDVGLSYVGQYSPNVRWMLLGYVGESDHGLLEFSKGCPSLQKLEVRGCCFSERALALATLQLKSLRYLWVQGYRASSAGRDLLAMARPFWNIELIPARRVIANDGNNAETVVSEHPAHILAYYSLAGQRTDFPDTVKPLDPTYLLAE
T1 sequence (Q9M723 174-200): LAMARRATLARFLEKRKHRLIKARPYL
T1 sequence (Q39255 1-160 partner): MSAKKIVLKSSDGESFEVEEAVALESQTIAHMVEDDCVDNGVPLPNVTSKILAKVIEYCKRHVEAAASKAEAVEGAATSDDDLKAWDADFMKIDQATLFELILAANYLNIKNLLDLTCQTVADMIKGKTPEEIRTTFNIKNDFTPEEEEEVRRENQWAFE
Briefly: AlphaScreen assay, GST-SlCOI1 and Fl-SlJAZP7. Format: binding. The method, then: (§1) AlphaScreen experiments were performed at 25 °C in the incubation buffer. 15 μL of the reaction mixture containing the incubation buffer, 5 nM SlCOI1, 10 nM Fl-SlJAZPs and various concentrations of COR or JA-Ile was added to a 1/2 Area AlphaPlate-96 (PerkinElmer), and then incubated for 1 h at 4 °C. Then, 10 μL of a detection mixture containing incubation buffer, 0.1 μL of FITC-coated donor beads, 0.1 μL of GST-coated acceptor beads was added to each well. Finally, the mixture was incubated for 12 h and the luminescence signals were detected using the Envision 2105 Multimode Plate Reader (PerkinElmer). The experiment was repeated three times, and the data are presented as average values with standard deviation. To clarify the difference in the affinity of the ligands with each COI1/JAZ co-receptor, the results of the AlphaScreen assay are shown with the normalized signal intensity change (Figs. 3, 4, and Supplementary Fig. S9) along with the raw signal intensity (Supplementary Figs. S8, S10, and S13)[40].
On the technique in general: Alpha assays give light when donor and acceptor beads are brought close together.

For a further assay, the target named is T2, SlCOI1-SlJAZ13 (Solanum lycopersicum, UniProt A0A3Q7EQ67+Q6TDU2).
T2 sequence (Q6TDU2 1-603): T1 sequence (Q6TDU2 1-603)
T2 sequence (A0A3Q7EQ67 85-111): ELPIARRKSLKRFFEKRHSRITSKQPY
T2 sequence (Q39255 1-160 partner): T1 sequence (Q39255 1-160 partner)
Briefly: AlphaScreen assay, GST-SlCOI1 and Fl-SlJAZP13. Type of assay: binding. The settings on record: calculated from AlphaScreen, 5 nM SlCOI1, 10 nM Fl-SlJAZP13. The method, then: as §1

Another assay addresses SlCOI1-SlJAZ11. Description: AlphaScreen assay, GST-SlCOI1 and Fl-SlJAZP11. Format: binding, Solanum lycopersicum. Conditions: calculated from AlphaScreen; 5 nM SlCOI1, 10 nM Fl-SlJAZP11. The method, then: as §1
The next assay addresses SlCOI1-SlJAZ9. Description: AlphaScreen assay, GST-SlCOI1 and Fl-SlJAZP9. Format: binding, Solanum lycopersicum. The settings on record: calculated from AlphaScreen; 5 nM SlCOI1, 10 nM Fl-SlJAZP9. The method, then:
as §1

The target in another assay is SlCOI1-SlJAZ10. Briefly: AlphaScreen assay, GST-SlCOI1 and Fl-SlJAZP10. Type of assay: binding, Solanum lycopersicum. The settings on record: calculated from AlphaScreen; 5 nM SlCOI1, 10 nM Fl-SlJAZP10. The method, then:
as §1

For the next assay, the target named is T3, SlCOI1-SlJAZ5 (Solanum lycopersicum, UniProt A0A3Q7FUH8+Q6TDU2).
T3 sequence (Q6TDU2 1-603): T1 sequence (Q6TDU2 1-603)
T3 sequence (A0A3Q7FUH8 327-353): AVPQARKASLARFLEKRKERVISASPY
T3 sequence (Q39255 1-160 partner): T1 sequence (Q39255 1-160 partner)
Briefly: AlphaScreen assay, GST-SlCOI1 and Fl-SlJAZP5. Format: binding. Conditions: calculated from AlphaScreen, 5 nM SlCOI1, 10 nM Fl-SlJAZP5. The method, then: as §1

In assay [1] the test system is GST-SlCOI1 with FLAG-SlJAZ1-3/5–8. Briefly: Pull down assay of GST-SlCOI1 with FLAG-SlJAZ (full-length proteins). Format: binding, Solanum lycopersicum. The settings on record: ligand 100 nM; full-length FLAG-SlJAZ1-3/5–8; immunoblotting. From the text: (§2) SlJAZ genes were cloned from the tomato cultivar Micro-Tom and their FLAG-tag-fused proteins FLAG-SlJAZ1-11/13 expressed using the wheat germ-derived cell-free protein expression system (Supplementary Fig. S1). GST-fused SlCOI1 (GST-SlCOI1) was also expressed in Sf9 cultured insect cells (Supplementary Fig. S2). Arabidopsis ASK protein was co-expressed to improve the stability of SlCOI1[26].
(§3) Figure 2 (a) Pull down assay of GST-SlCOI1 with FLAG-SlJAZ (full-length proteins) in the presence of JA-Ile (100 nM). GST-SlCOI1 bound to FLAG-SlJAZ proteins was pulled down with anti-FLAG antibody and Protein G magnetic beads, and analyzed by immunoblotting (top: anti-GST-HRP conjugate for detection of GST-SlCOI1, bottom: anti-FLAG antibody and anti mouse-IgG HRP conjugate for detection of FLAG-SlJAZs). *or **show the bands derived from heavy chain or light chain of the anti-FLAG antibody. (b) Pull down assay of GST-SlCOI1 with Fl-SlJAZPs in the presence of JA-Ile (100 nM). GST-SlCOI1 bound to Fl-SlJAZPs was pulled down with anti-fluorescein antibody and Protein G magnetic beads, and analyzed by immunoblotting (anti-GST-HRP conjugate for detection of GST-SlCOI1).
(§4) All chemicals (JA-Ile or COR) were dissolved in ethanol to generate 10 mM stock solutions and diluted with 20% ethanol aq. for preparation of 100 μM stock solutions. For the pull-down experiments using full-length SlJAZ proteins, purified GST-COI1 (5 nM), FLAG-tagged SlJAZ (each 20 µL of the translation mixture), and the ligands (COR or JA-Ile) in 350 µL of incubation buffer (50 mM Tris–HCl buffer, pH 7.8, 100 mM NaCl, 20 mM 2-mercaptoethanol, 10% glycerol, 0.1% Tween20, 100 nM inositol-1,2,4,5,6-pentakisphosphate (IP5)) were combined with anti-FLAG antibody (0.2 µL, Sigma Aldrich, F1804, clone M2), and incubated for 10–15 h at 4 °C with rotation. After incubation, the samples were combined with SureBeads Protein G (10 µL in 50% incubation buffer slurry, Bio-Rad). After 3 h incubation at 4 °C with rotation, the samples were washed three times with 350 µL of fresh incubation buffer. The washed beads were resuspended in 35 µL of SDS-PAGE loading buffer containing dithiothreitol (DTT, 100 mM). After heating for 10 min at 60 °C, the samples were subjected to SDS-PAGE and analyzed by western blotting. The bound GST-COI1 protein was detected using anti-GST HRP conjugate (RPN1236, GE Healthcare, 5000-fold dilution in blocking buffer (Nakalai tesque, Inc., Japan). FLAG-JAZ proteins were detected using anti-FLAG antibody (1000-fold dilution in blocking buffer) and anti-mouse IgG-HRP antibody (Southern Biotech. Inc., Birmingham, US, 1031-05, 20,000-fold dilution in blocking buffer). Three independent replicates using proteins purified at different times were done with similar results (Supplementary Fig. S3).
A general note: A western blot detects proteins with antibodies after separation by electrophoresis.

Assay [2] deals with GST-SlCOI1 with FLAG-SlJAZ4/13. The assay is described as above. Type of assay: binding, Solanum lycopersicum. The settings on record: ligand 100 nM; full-length FLAG-SlJAZ4/13; immunoblotting.
From the text: as §2, §3, §4

Assay [3] relates to GST-SlCOI1 with FLAG-SlJAZ9-11. The assay is described as above. The settings on record: ligand 100 nM; full-length FLAG-SlJAZ9-11; immunoblotting. Format: binding, Solanum lycopersicum.
From the text: as §2, §3, §4

Another assay addresses SlCOI1-SlJAZ6. Description: AlphaScreen assay, GST-SlCOI1 and Fl-SlJAZP6. The settings on record: calculated from AlphaScreen; 5 nM SlCOI1, 10 nM Fl-SlJAZP6. Type of assay: binding, Solanum lycopersicum. The method, then:
as §1

In a further assay the target is T4, SlCOI1-SlJAZ1 (Solanum lycopersicum, UniProt A0A3Q7H988+Q6TDU2).
T4 sequence (Q6TDU2 1-603): T1 sequence (Q6TDU2 1-603)
T4 sequence (A0A3Q7H988 159-185): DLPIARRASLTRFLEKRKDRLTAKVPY
T4 sequence (Q39255 1-160 partner): T1 sequence (Q39255 1-160 partner)
Briefly: AlphaScreen assay, GST-SlCOI1 and Fl-SlJAZP1. Type of assay: binding. Conditions: calculated from AlphaScreen, 5 nM SlCOI1, 10 nM Fl-SlJAZP1. The method, then:
as §1

Another assay addresses SlCOI1-SlJAZ8. Briefly: AlphaScreen assay, GST-SlCOI1 and Fl-SlJAZP8. The settings on record: calculated from AlphaScreen; 5 nM SlCOI1, 10 nM Fl-SlJAZP8. Format: binding, Solanum lycopersicum. The method, then:
as §1

Assay [4] concerns the target GST-SlCOI1 and SlJAZP1-4DOD. Briefly: AlphaScreen assay, GST-SlCOI1 and swapped SlJAZP1-4DOD. The settings on record: swapped peptide: DOD sequence of SlJAZP1 swapped with that of SlJAZP4. Type of assay: binding, Solanum lycopersicum.
From the text: To examine the effect of the DOD sequence, we studied SlJAZP1-4/13 which incorporate the same JAZ degron sequence LPIARR and alternative DOD sequence XSLX. […] We prepared SlJAZP1-3DOD and SlJAZP1-4DOD, wherein the DOD sequence of SlJAZP1 was swapped with those of SlJAZP3 and SlJAZP4, respectively (Fig. 4a, and Supplementary Figs. S11–12). […] Next, we examined whether the DOD sequence also affected the affinity of SlJAZP5/6/8 with another JAZ degron sequence VPQARK. […] We prepared DOD swapped peptides SlJAZP5-2DOD (ASLA of SlJAZ5 to NSLT of SlJAZ2) and SlJAZP2-5DOD (NSLT of SlJAZ2 to ASLA of SlJAZ5) (Fig. 4a, and Supplementary Figs. S11–12).
as §1, with “To clarify the difference in the affinity of the ligands with each COI1/JAZ co-receptor, the results of the AlphaScreen assay are shown with the normalized signal intensity change (Figs. 3, 4, and Supplementary Fig. S9) along with the raw signal intensity (Supplementary Figs. S8, S10, and S13)[40].” left out

Read-outs that look alike come from different tables or passages of the source.

Broadly, the Kd is the free concentration of one partner at which half of the binding sites on the other are occupied at equilibrium, for simple one-to-one binding. Take `CC[C@H]1C=C(C(=O)N[C@@]2(C(=O)O)C[C@@H]2CC)[C@H]2CCC(=O)[C@H]2C1` [COR, coronatine]: the Kd was 0.23 nM at SlCOI1-SlJAZ7; 80.7 nM on SlCOI1-SlJAZ13; 62.4 nM on SlCOI1-SlJAZ11; 44.7 nM at SlCOI1-SlJAZ9; 89.7 nM on SlCOI1-SlJAZ10; 0.64 nM at SlCOI1-SlJAZ5. Besides, the values for the Kd at SlCOI1-SlJAZ6, at SlCOI1-SlJAZ1 and on SlCOI1-SlJAZ8 were 0.76 nM, 4.9 nM and 0.39 nM, respectively. Besides, the “pull-down of GST-SlCOI1” value in [1], in [2] and in assay [3] was “Identical results” throughout.

Regarding `CC/C=C\C[C@@H]1C(=O)CC[C@@H]1CC(=O)N[C@H](C(=O)O)[C@@H](C)CC` [JA-Ile, (+)-7-iso-Jasmonoyl-L-isoleucine], the Kd is 16.2 nM on SlCOI1-SlJAZ7 (calculated from AlphaScreen, 5 nM SlCOI1, 10 nM Fl-SlJAZP7, read-out: Kd); 46.9 nM in assay [4]; 637 nM at SlCOI1-SlJAZ13 (read-out: Kd); 430 nM on SlCOI1-SlJAZ11; 1110 nM at SlCOI1-SlJAZ9; 402 nM on SlCOI1-SlJAZ10. Further, the Kd on SlCOI1-SlJAZ5 (read-out: Kd) was 4.2 nM; at SlCOI1-SlJAZ6, 4.1 nM; on SlCOI1-SlJAZ1 (read-out: Kd) it was 9.2 nM; at SlCOI1-SlJAZ8, 2.2 nM. Further, the “pull-down of GST-SlCOI1” value in assay [1] is “pulled-down GST-SlCOI1”; in assay [2] it was “could not pull-down the GST-SlCOI1”; in [3] it was “not FLAG-SlJAZ9-11 pulled-down GST-SlCOI1”.
